Where a name gives a salt, the structure may show the parent alone. Marks after values point to notes of the source that are not given here.
Experiments:
[1] = test system: rabbit cortex; assay: Quantitative EEG, rabbit cortex, intravenous administration; format: in vivo, rabbits; details: for group percent change in electrical energy from pre-drug control, Δ band / mean change ± S.E. in electrical energy from pre-drug control, Δ band: Δ = 0.5-3.5 Hz; for group percent change in electrical energy from pre-drug control, α band / mean change ± S.E. in electrical energy from pre-drug control, α band: α= 7-13 Hz; for group percent change in electrical energy from pre-drug control, β band / mean change ± S.E. in electrical energy from pre-drug control, β band: β= 13-25 Hz; for group percent change in electrical energy from pre-drug control, γ band / mean change ± S.E. in electrical energy from pre-drug control, γ band: γ= 25-40 Hz; for group percent change in electrical energy from pre-drug control, θ band / mean change ± S.E. in electrical energy from pre-drug control, θ band: θ= 3.5-7.0 Hz
Experimental: At least 2 weeks were allowed for recovery before beginning experimentation.
Groups of four animals each were individually restrained and connected to an EEG amplifier and frequency analyzer. The EEG of each animal was recorded on a separate channel. The instrumentation filtered each channel of EEG analog data into five distinct frequency bands: Δ=0.5-3.5 Hz, ϑ=3.5-7.0 Hz, α=7-13 Hz, β=13-25 Hz and γ=25-40 Hz. The EEG analyzer then integrated the filtered waveforms and sent pulses to an associated computer at a rate proportional to the electrical energy of each band. Thus, one computer print-out provided a cortical EEG profile for the entire group of four rabbits.
Data from a one-hour recording period were collected in four 15-minute periods, which provided additional information concerning both onset and time of peak effect of drug activity. However, in this report only the mean activity of the four data collection periods was considered since onset of drug activity was immediate and duration of action was at least one hour for all drugs studied. Drug-induced EEG changes were determined by comparing the post-treatment print-out to the pretreatment control in the same animal and statistical analysis was performed on change from control, in counts, using multiple Student-t paired-comparison tests with p≦0.05 (Table 1). However, for clarity data are also presented as percent change from control (Figures 1 and 2).
All drugs were administered intravenously in saline solution as their respective salts and all dosage calculations were based on the free base. Recording was started immediately after injection and animals were not used more often than once per week. Initial doses were reduced geometrically until a no-effect dose was determined for each drug. However, only the "no-effect" data and the data generated from the next higher dose are presented in this report since the shape of the EEG profile is not dose-related, as opposed to the magnitude of the response which is dose-related.

[2] = test system: fronto-occipital cortex of the cat; assay: Quantitative EEG, fronto-occipital cat cortex, subcutaneous administration; format: in vivo, cats; details: for group percent change in electrical energy from pre-drug control, Δ band / mean change ± S.E. in electrical energy from pre-drug control, Δ band / group percent change in electrical energy from pre-drug control, α band / mean change ± S.E. in electrical energy from pre-drug control, α band / group percent change in electrical energy from pre-drug control, β band / mean change ± S.E. in electrical energy from pre-drug control, β band / group percent change in electrical energy from pre-drug control, γ band / mean change ± S.E. in electrical energy from pre-drug control, γ band / group percent change in electrical energy from pre-drug control, θ band / mean change ± S.E. in electrical energy from pre-drug control, θ band: fronto-occipital cat cortex; for group percent change in electrical energy from pre-drug control, Δ band / mean change ± S.E. in electrical energy from pre-drug control, Δ band: Δ = 0.5-3.5 Hz; for group percent change in electrical energy from pre-drug control, α band / mean change ± S.E. in electrical energy from pre-drug control, α band: α= 7-13 Hz; for group percent change in electrical energy from pre-drug control, β band / mean change ± S.E. in electrical energy from pre-drug control, β band: β= 13-25 Hz; for group percent change in electrical energy from pre-drug control, γ band / mean change ± S.E. in electrical energy from pre-drug control, γ band: γ= 25-40 Hz; for group percent change in electrical energy from pre-drug control, θ band / mean change ± S.E. in electrical energy from pre-drug control, θ band: θ= 3.5-7.0 Hz
Text: This unique combination of activity may render buspirone useful in the treatment of childhood hyperkinesis which has been reported to respond to both selected phenothiazine and stimulant drugs. • (b) Adult mongrel female cats weighing 2.5-4.0 kg were implanted with EEG recording electrodes. Recording sites were as follows: fronto-occipital cortex, basal amygdala and ventral hippocampus.
Animals were individually held in canvas feline restraining bags for EEG recording. The EEG of each brain area was recorded on a separate channel. The instrumentation filtered each channel of EEG and analog data into five distinct frequency bands: Δ=0.5-3.5 Hz, ϑ=3.5-7.0 Hz, α=7-13 Hz, β=13-25 Hz and γ=25-40 Hz. The EEG analyzer then integrated the filtered waveforms and sent pulses to an associated computer at a rate proportional to the electrical energy of each band. Data collecting procedures were essentially the same as reported in Example 1. However, groups of six animals each were used and all drugs were administered subcutaneously in saline solution as their respective salts, but all dosages were calculated as the free base. Recording was started 30 minutes after injection to insure adequate drug absorption for peak activity.
Drug-induced EEG changes were determined by comparing the post-treatment data to the pre-treatment control in the same animal. Statistical analysis was performed on change from control, in instrument counts, using multiple Student-t-paired-comparison test with P≦0.05 (Table 2). However, for clarity data are also presented as percent change from control (Figures 3, 4 and 5).
The data in Table 2 are drug-induced changes resulting from the minimum and higher doses of each compound required to elicit the EEG profile characteristic of that particular drug.

[3] = rabbit cortex, 0.125 mg/kg free base i.v.
[4] = rabbit cortex, 0.25 mg/kg free base i.v.

CSc1ccc2c(c1)N(CCC1CCCCN1C)c1ccccc1S2 (centres unmarked) [Thioridazine HCl, thioridazine]
minimal effective dose ([1]; Oryctolagus cuniculus, iv, rabbit cortex EEG, dose of free base, read-out: the minimum dose required to produce the EEG profile characteristic of that particular drug): 0.25 mg/kg | relative potency by comparing minimal doses required to elicit EEG profiles ([1]; rabbit cortex EEG, i.v.): approximately twice as potent as buspirone | the no-effect dose ([1]; rabbit cortex EEG, dose of free base): 0.125† mg/kg, i.v. | EEG profile ([1]; rabbit cortex, i.v.): completely different from that produced by stimulant drugs | group percent change in electrical energy from pre-drug control, Δ band [1, 3]: +3% | mean change ± S.E. in electrical energy from pre-drug control, Δ band [1, 3]: +11 ± 23 instrument counts | group percent change in electrical energy from pre-drug control, Δ band [1, 4]: +69% | mean change ± S.E. in electrical energy from pre-drug control, Δ band [1, 4]: +143 ± 11 instrument counts | group percent change in electrical energy from pre-drug control, α band [1, 3]: 0% | mean change ± S.E. in electrical energy from pre-drug control, α band [1, 3]: 0 ± 6 instrument counts | group percent change in electrical energy from pre-drug control, α band [1, 4]: +34% | mean change ± S.E. in electrical energy from pre-drug control, α band [1, 4]: +54 ± 2 instrument counts | group percent change in electrical energy from pre-drug control, β band [1, 3]: +3% | mean change ± S.E. in electrical energy from pre-drug control, β band [1, 3]: +5 ± 4 instrument counts | group percent change in electrical energy from pre-drug control, β band [1, 4]: +35% | mean change ± S.E. in electrical energy from pre-drug control, β band [1, 4]: +39 ± 4 instrument counts | group percent change in electrical energy from pre-drug control, γ band [1, 3]: +1% | mean change ± S.E. in electrical energy from pre-drug control, γ band [1, 3]: +1 ± 1 instrument counts | group percent change in electrical energy from pre-drug control, γ band [1, 4]: +5% | mean change ± S.E. in electrical energy from pre-drug control, γ band [1, 4]: +5 ± 1 instrument counts | group percent change in electrical energy from pre-drug control, θ band [1, 3]: -5% | mean change ± S.E. in electrical energy from pre-drug control, θ band [1, 3]: -13 ± 8 instrument counts | group percent change in electrical energy from pre-drug control, θ band [1, 4]: +21% | mean change ± S.E. in electrical energy from pre-drug control, θ band [1, 4]: +43 ± 4 instrument counts | minimal effective dose ([2]; Felis catus, sc, fronto-occipital cat cortex EEG, dose of free base, read-out: the minimum dose required to produce the EEG profile characteristic of that particular drug): 1 mg/kg | the no-effect dose ([2]; fronto-occipital cat cortex EEG, dose of free base): 0.5† mg/kg, s.c. | group percent change in electrical energy from pre-drug control, Δ band ([2]; 0.5 mg/kg free base s.c.): +5% | mean change ± S.E. in electrical energy from pre-drug control, Δ band ([2]; 0.5 mg/kg free base s.c.): +11 ± 21 instrument counts | group percent change in electrical energy from pre-drug control, Δ band ([2]; 1.0 mg/kg free base s.c.): +19% | mean change ± S.E. in electrical energy from pre-drug control, Δ band ([2]; 1.0 mg/kg free base s.c.): +38 ± 11 instrument counts | group percent change in electrical energy from pre-drug control, Δ band ([2]; 8.0 mg/kg free base s.c.): +28% | mean change ± S.E. in electrical energy from pre-drug control, Δ band ([2]; 8.0 mg/kg free base s.c.): +54 ± 8 instrument counts | group percent change in electrical energy from pre-drug control, α band ([2]; 0.5 mg/kg free base s.c.): 0% | mean change ± S.E. in electrical energy from pre-drug control, α band ([2]; 0.5 mg/kg free base s.c.): 0 ± 7 instrument counts | group percent change in electrical energy from pre-drug control, α band ([2]; 1.0 mg/kg free base s.c.): +18% | mean change ± S.E. in electrical energy from pre-drug control, α band ([2]; 1.0 mg/kg free base s.c.): +20 ± 5 instrument counts | group percent change in electrical energy from pre-drug control, α band ([2]; 8.0 mg/kg free base s.c.): +26% | mean change ± S.E. in electrical energy from pre-drug control, α band ([2]; 8.0 mg/kg free base s.c.): +25 ± 6 instrument counts | group percent change in electrical energy from pre-drug control, β band ([2]; 0.5 mg/kg free base s.c.): -3% | mean change ± S.E. in electrical energy from pre-drug control, β band ([2]; 0.5 mg/kg free base s.c.): -3 ± 3 instrument counts | group percent change in electrical energy from pre-drug control, β band ([2]; 1.0 mg/kg free base s.c.): +3% | mean change ± S.E. in electrical energy from pre-drug control, β band ([2]; 1.0 mg/kg free base s.c.): +3 ± 4 instrument counts | group percent change in electrical energy from pre-drug control, β band ([2]; 8.0 mg/kg free base s.c.): -2% | mean change ± S.E. in electrical energy from pre-drug control, β band ([2]; 8.0 mg/kg free base s.c.): -3 ± 4 instrument counts | group percent change in electrical energy from pre-drug control, γ band ([2]; 0.5 mg/kg free base s.c.): -5% | mean change ± S.E. in electrical energy from pre-drug control, γ band ([2]; 0.5 mg/kg free base s.c.): -3 ± 3 instrument counts | group percent change in electrical energy from pre-drug control, γ band ([2]; 1.0 mg/kg free base s.c.): -11% | mean change ± S.E. in electrical energy from pre-drug control, γ band ([2]; 1.0 mg/kg free base s.c.): -9 ± 4 instrument counts | group percent change in electrical energy from pre-drug control, γ band ([2]; 8.0 mg/kg free base s.c.): -15% | mean change ± S.E. in electrical energy from pre-drug control, γ band ([2]; 8.0 mg/kg free base s.c.): -12 ± 3 instrument counts | group percent change in electrical energy from pre-drug control, θ band ([2]; 0.5 mg/kg free base s.c.): -1% | mean change ± S.E. in electrical energy from pre-drug control, θ band ([2]; 0.5 mg/kg free base s.c.): -2 ± 8 instrument counts | group percent change in electrical energy from pre-drug control, θ band ([2]; 1.0 mg/kg free base s.c.): +24% | mean change ± S.E. in electrical energy from pre-drug control, θ band ([2]; 1.0 mg/kg free base s.c.): +29 ± 5 instrument counts | group percent change in electrical energy from pre-drug control, θ band ([2]; 8.0 mg/kg free base s.c.): +30% | mean change ± S.E. in electrical energy from pre-drug control, θ band ([2]; 8.0 mg/kg free base s.c.): +40 ± 6 instrument counts

From patent EP0497314A1, “Use of azapirones in attention deficit hyperactivity disorder” (Bristol-Myers Squibb Company, priority 1991, dated 1992)
